# Assay results from patent publication US20250295678A1, “ULTRA LOW DOSAGE ZOLEDRONIC ACID FOR TREATMENT OF RETINAL DISEASE” (The Regents of the University of California, priority 2022, published 2025).
# “Also recorded” adds a separate entry of the source.
# How the values were obtained:
# [1] = test system: primary RPE cultures; experiment: Ceramide in primary RPE cultures treated with adiporon; assay type: cell-based, porcine; details: 0.01-1 μM, 3 h
# [2] = test system: polarized primary RPE cultures; experiment: Complement-mediated mitochondrial fragmentation in polarized primary RPE monolayers (A2E + NHS, MitoTracker live imaging); assay type: cell-based, porcine
# Procedure: Highly differentiated polarized primary RPE cultures were established from freshly harvested porcine eyes as described (Toops et al., 2014). To induce complement-mediate mitochondrial injury, RPE monolayers were treated with the lipofuscin bisretinoid A2E, which compromises mechanisms that protect the RPE from complement activation (Tan et al., 2016). RPE cells were exposed to active complement components (10% normal human serum, NHS, for 10 min at 37° C.) to induce complement activation on the RPE cell surface. […] After NHS exposure, cells were treated with 1 μM zoledronic acid for 3 h. RPE mitochondria were labeled with MitoTracker Deep Red and cells were imaged live on a Nikon spinning disc confocal microscopy as we have described (Tan et al., 2016; La Cunza et al., 2021). Mitochondrial surfaces were reconstructed from 4-dimensional images using Imaris (Bitplane).
# Highly differentiated polarized primary RPE cultures were established from freshly harvested porcine eyes as described (Toops et al., 2014). To induce complement-mediate mitochondrial injury, RPE monolayers were treated with the lipofuscin bisretinoid A2E, which compromises mechanisms that protect the RPE from complement activation (Tan et al., 2016). RPE cells were exposed to active complement components (10% normal human serum, NHS, for 10 min at 37° C.) to induce complement activation on the RPE cell surface. […]
# [3] = target: T1, acid sphingomyelinase (ASM) (Homo sapiens, UniProt P17405); details: functional ASM inhibitor, prior publication; cited from earlier work
# T1 sequence (P17405 47-631): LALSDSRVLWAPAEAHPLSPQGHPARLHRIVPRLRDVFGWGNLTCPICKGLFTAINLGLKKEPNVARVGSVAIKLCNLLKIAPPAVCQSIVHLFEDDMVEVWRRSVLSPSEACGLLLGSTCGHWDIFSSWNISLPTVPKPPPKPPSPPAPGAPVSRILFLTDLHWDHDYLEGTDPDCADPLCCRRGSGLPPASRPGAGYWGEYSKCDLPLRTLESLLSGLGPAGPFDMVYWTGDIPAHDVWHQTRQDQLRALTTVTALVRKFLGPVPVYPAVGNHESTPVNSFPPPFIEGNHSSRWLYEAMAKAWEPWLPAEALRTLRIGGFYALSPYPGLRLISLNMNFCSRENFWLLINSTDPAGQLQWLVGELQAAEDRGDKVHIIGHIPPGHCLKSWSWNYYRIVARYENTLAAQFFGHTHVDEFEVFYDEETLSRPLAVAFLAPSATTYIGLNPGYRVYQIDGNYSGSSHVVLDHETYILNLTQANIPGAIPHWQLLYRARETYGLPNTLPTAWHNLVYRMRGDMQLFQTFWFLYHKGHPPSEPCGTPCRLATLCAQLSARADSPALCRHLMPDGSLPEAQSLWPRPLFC
smiles,measurement,setting,value
O=C(COc1ccc(C(=O)c2ccccc2)cc1)NC1CCN(Cc2ccccc2)CC1 [adiporon],ceramide in primary RPE cultures,[1],effective in decreasing ceramide
same,complement-mediated mitochondrial fragmentation in the RPE in vitro,"[2]; 1 μM for 3 h after NHS exposure (FIG. 5, FIG. 9)",prevented complement-mediated mitochondrial fragmentation
same,complement-induced mitochondrial injury in primary RPE cultures,"[2]; 0.01-1 μM, 3 h (0.01 μM data not shown)",preventing complement-induced mitochondrial injury
CNCCCN1c2ccccc2CCc2ccccc21 [desipramine],ceramide accumulation (prior work),[3],decreases ceramide alone; also recorded: can effectively inhibit ceramide accumulation
